Patent US20220218679A1, “NOVEL COMPOUNDS AND PHARMACEUTICAL COMPOSITIONS THEREOF FOR THE TREATMENT OF INFLAMMATORY DISORDERS” (Galapagos NV, priority 2019, published 2022)

Experiments:
mouse CIA model = assay: Mouse collagen induced arthritis (CIA) model; assay type: in vivo, DBA1/J mice; conditions: 3, 10 and 30 mg/kg b.i.d., versus disease vehicle group
Protocol: Completed Freund's adjuvant (CFA) and incomplete Freund's adjuvant (IFA) were purchased from Difco. Bovine collagen type II (CII), lipopolysaccharide (LPS), and Enbrel was obtained from Chondrex (Isle d'Abeau, France); Sigma (P4252, L'Isle d'Abeau, France), Whyett (25 mg injectable syringe, France) Acros Organics (Palo Alto, Calif.), respectively. All other reagents used were of reagent grade and all solvents were of analytical grade.
DBA1/J mice (male, 7-8 weeks old) were obtained from Charles River Laboratories (France). Mice were kept on a 12 h light/dark cycle (07 h 00-19 h 00). Temperature was maintained at 22° C., and food and water were provided ad libitum.
5.1.3. Collagen Induced Arthritis (CIA)
One day before the experiment, CII solution (2 mg/mL) was prepared with 0.05 M AcOH and stored at 4° C. Just before the immunization, equal volumes of adjuvant […] and CII were mixed by a homogenizer in a pre-cooled glass bottle in an ice water bath. Extra adjuvant and prolonged homogenization may be required if an emulsion was not formed. […]
The therapeutic effects of the compounds were tested in the mouse CIA model. […] Body weight and clinical score, were recorded twice a week. […]
Arthritis is scored according to the method of (Khachigian, 2006; Lin et al., 2007; Nishida et al., 2004). […]
For each readout, mean and sem are calculated. […]

[1] = test system: sclerodermatous cGvHD in BALB/c (H-2d) mice; assay: Murine sclerodermatous chronic graft-versus host disease (cGvHD); assay type: in vivo; conditions: 10 mg/kg b.i.d., day 21 to day 56 post transplantation
Source text: 5.10. Murine Sclerodermatous Chronic Graft-Versus Host Disease (cGvHD)
In this cGvHD model, fibrosis is induced in BALB/c (H-2d) mice by allogeneic transplantation of bone marrow cells and splenocytes from B10.D2 (H-2d) donor mice (minor HLA mismatch). The recipient mice develop inflammation-driven dermal and pulmonary fibrosis resembling patients with rapidly progressive diffuse cutaneous systemic sclerosis. (Zerr et al., 2012)
The treatment is provided only after the onset of first clinical symptoms of sclerodermatous cGvHD. […]
The anti-fibrotic effects on skin were analysed by determination of dermal thickness, quantification of lesional collagen and staining for myofibroblasts.
In case of positive effects on skin fibrosis, effects on pulmonary fibrosis were analysed by Ashcroft scoring, by hydroxyproline content and by quantification of the collagen covered area using SirCol staining.
Based on individual animal raw data, the means for each group were determined and percent change from disease controls was calculated. Treatment groups were compared to disease controls using a one-way analysis of variance (1-way ANOVA) with a Dunnett's post-hoc analysis for measured (parametric) data or a Kruskal-Wallis test with a Dunn's post-hoc analysis for scored (non-parametric) data.

COc1cn2nc(CCC(C)(C)O)cc2cc1NC(=O)c1cccn(C2CC2)c1=O [Compound 1, 1-cyclopropyl-N-[2-(3-hydroxy-3-methylbutyl)-6-methoxypyrazolo[1,5-a]pyridin-5-yl]-2-oxopyridine-3-carboxamide]
statistically significant effect: effect on bone erosion Larsen Score (mouse CIA model) | effect on clinical score (mouse CIA model) | effect on Lung fibrosis (Ashcroft, SirCol) [1] | effect on skin fibrosis (Hydroxyproline) [1]
